For assay [1], the target named is T1, DppBCDF translocator (cluster site of DppD) (Escherichia coli, UniProt P0AAG0).
T1 construct: same complex as P2: heterotetramer, C-terminal Strep-tag II, expressed in E. coli, GDN detergent; with Dipeptide transport system permease protein DppB; Dipeptide transport system permease protein DppC
The assay is described as follows: cryo-EM structure of the complex ([…] Å). The class given is binding. The following applies: cluster in DppD, ligands Cys284, Cys290, Cys297, Cys315; 2 mM DTT.

The target in assay [2] is T2, DppBCDF translocator (nucleotide and cluster site of DppF) (Escherichia coli, UniProt P37313).
T2 construct: heterotetramer, C-terminal Strep-tag II, expressed in E. coli, DDM then GDN detergent; with Dipeptide transport system permease protein DppB; Dipeptide transport system permease protein DppC
The assay is described as follows: cryo-EM structure of the complex ([…] Å). The following applies: cluster in DppF, ligands Cys293, Cys299, Cys306, Cys323; 2 mM DTT. The class given is binding.

The target in assay [3] is T3, DppA (Escherichia coli, UniProt P23847).
T3 construct: soluble periplasmic protein, His-tagged, Ni-NTA with guanidine wash to remove endogenous peptides; expressed in E. coli
T3 sequence (P23847 29-535): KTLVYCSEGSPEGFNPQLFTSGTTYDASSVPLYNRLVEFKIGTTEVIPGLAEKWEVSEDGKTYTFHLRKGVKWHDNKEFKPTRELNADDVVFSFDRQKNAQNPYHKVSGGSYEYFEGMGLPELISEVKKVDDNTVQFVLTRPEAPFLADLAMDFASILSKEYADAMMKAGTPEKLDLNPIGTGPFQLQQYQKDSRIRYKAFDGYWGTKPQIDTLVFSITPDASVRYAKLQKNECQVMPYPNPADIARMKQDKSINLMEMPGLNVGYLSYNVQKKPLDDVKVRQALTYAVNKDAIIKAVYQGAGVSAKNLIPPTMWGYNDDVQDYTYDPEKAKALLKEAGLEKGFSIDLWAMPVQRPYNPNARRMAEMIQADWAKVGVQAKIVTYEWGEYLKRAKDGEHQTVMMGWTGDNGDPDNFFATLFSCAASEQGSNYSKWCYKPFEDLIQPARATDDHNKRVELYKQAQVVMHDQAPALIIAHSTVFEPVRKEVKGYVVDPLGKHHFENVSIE
Put plainly: isothermal titration calorimetry. The following applies: read-out: affinity. It is filed as binding.

For assay [4], the system named is T4, DppABCDF full transporter.
T4 construct: gene dppD; heteropentamer; structure: DppA C-terminal His-tag and Strep tag, GDN; ATPase: DppBCDF in MSP1E3D1/POPG nanodiscs plus separately purified DppA; Dipeptide transport system permease protein DppB; Dipeptide transport system permease protein DppC
Put plainly: malachite green phosphate ATPase assay, nanodiscs. It is filed as biochemical, Escherichia coli. Particulars: DppA added, Mg2+, pH 7.5, 37 °C; with or without Ala-Ala.

Assay [5] concerns the target T5, DppABCDF full transporter (Escherichia coli, UniProt P0AAG0+P37313, P0AAG0:E179Q/P37313:E187Q).
T5 construct: gene dppD; heteropentamer; structure: DppA C-terminal His-tag and Strep tag, GDN; ATPase: DppBCDF in MSP1E3D1/POPG nanodiscs plus separately purified DppA; Dipeptide transport system permease protein DppB; Dipeptide transport system permease protein DppC
Put plainly: cryo-EM structure of the complex ([…] Å). It is filed as binding. Particulars: 2 mM ATPγS, 2 mM MgCl2, on ice; outward-facing; two molecules at the DppD-DppF interface.

SMILES strings stand for the structures. Peptide text beside a SMILES is read from it.

T4 sequence (P0AAG0 whole entry, one chain of several): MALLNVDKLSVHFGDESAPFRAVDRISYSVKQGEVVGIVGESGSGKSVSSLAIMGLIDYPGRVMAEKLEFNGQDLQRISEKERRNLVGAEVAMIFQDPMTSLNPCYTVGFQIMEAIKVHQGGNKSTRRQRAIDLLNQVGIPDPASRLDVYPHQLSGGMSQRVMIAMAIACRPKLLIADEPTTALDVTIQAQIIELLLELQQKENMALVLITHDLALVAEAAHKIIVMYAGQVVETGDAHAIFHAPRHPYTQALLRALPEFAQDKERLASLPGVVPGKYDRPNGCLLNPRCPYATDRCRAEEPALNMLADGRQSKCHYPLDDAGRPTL
T4 sequence (P0AEF8 whole entry, one chain of several, further chain): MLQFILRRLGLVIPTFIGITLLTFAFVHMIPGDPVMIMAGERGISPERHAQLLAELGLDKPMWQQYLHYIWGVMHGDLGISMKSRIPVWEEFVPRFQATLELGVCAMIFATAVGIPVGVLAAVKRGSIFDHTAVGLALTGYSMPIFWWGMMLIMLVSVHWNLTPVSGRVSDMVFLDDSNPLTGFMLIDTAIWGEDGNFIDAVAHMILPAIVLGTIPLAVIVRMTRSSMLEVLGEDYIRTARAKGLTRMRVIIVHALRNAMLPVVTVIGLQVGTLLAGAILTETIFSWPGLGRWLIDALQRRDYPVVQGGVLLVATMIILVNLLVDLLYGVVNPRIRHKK
T4 sequence (P0AEG1 whole entry, one chain of several, further chain): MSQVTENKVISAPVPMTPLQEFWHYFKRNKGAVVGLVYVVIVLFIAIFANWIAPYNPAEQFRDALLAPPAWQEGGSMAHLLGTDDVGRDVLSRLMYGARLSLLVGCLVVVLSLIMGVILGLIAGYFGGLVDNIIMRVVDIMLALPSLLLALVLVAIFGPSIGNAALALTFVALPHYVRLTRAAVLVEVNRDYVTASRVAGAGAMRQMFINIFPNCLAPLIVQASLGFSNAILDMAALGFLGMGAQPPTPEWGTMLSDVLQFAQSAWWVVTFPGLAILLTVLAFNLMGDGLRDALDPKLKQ
T4 sequence (P37313 whole entry, one chain of several, further chain): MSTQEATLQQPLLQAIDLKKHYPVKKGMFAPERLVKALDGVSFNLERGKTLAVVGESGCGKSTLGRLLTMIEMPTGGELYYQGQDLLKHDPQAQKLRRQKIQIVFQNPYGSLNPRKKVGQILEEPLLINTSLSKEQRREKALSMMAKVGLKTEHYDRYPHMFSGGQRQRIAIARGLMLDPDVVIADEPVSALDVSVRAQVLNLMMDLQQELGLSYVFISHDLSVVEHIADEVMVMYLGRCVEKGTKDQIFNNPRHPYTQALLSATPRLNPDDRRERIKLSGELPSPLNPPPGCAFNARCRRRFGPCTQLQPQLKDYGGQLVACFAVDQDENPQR
T1 sequence (P0AAG0 whole entry): as the sequence (P0AAG0 whole entry, one chain of several) above
T1 sequence (P0AEF8 whole entry partner): as the sequence (P0AEF8 whole entry, one chain of several, further chain) above
T1 sequence (P0AEG1 whole entry partner): as the sequence (P0AEG1 whole entry, one chain of several, further chain) above
T1 sequence (P37313 whole entry partner): as the sequence (P37313 whole entry, one chain of several, further chain) above
T5 sequence (P0AAG0 whole entry E179Q, one chain of several): as the sequence (P0AAG0 whole entry, one chain of several) above, with E179Q counted along it
T5 sequence (P37313 whole entry E187Q, one chain of several): as the sequence (P37313 whole entry, one chain of several, further chain) above, with E187Q counted along it
T5 sequence (P0AEF8 whole entry partner, one chain of several): as the sequence (P0AEF8 whole entry, one chain of several, further chain) above
T5 sequence (P0AEG1 whole entry partner, one chain of several): as the sequence (P0AEG1 whole entry, one chain of several, further chain) above
T2 sequence (P37313 whole entry): as the sequence (P37313 whole entry, one chain of several, further chain) above
T2 sequence (P0AEF8 whole entry partner): as the sequence (P0AEF8 whole entry, one chain of several, further chain) above
T2 sequence (P0AEG1 whole entry partner): as the sequence (P0AEG1 whole entry, one chain of several, further chain) above
T2 sequence (P0AAG0 whole entry partner): as the sequence (P0AAG0 whole entry, one chain of several) above

Turning to `[S]12[Fe]3[S]4[Fe]1[S]1[Fe]2[S]3[Fe]41` [[4Fe-4S] cluster], the “cryo-EM structure of the complex (3.2 Å)” value is “The [4Fe-4S] cluster in DppD is coordinated by Cys284, Cys290, Cys297 and Cys315” in assay [1]; “the [4Fe-4S] cluster in DppF is coordinated by Cys293, Cys299, Cys306 and Cys323” in assay [2].

Consider `CC(C)C[C@H](NC(=O)CN)C(=O)O` [GL, Gly-Leu], for which, in assay [3], the Kd was about 2200 nM. On the same count and under the same terms, in the case of `C[C@H](N)C(=O)N[C@@H](C)C(=O)O` [AA, Ala-Ala] (H-Ala-Ala-OH) it was about 13.9 nM. As for `Nc1ncnc2c1ncn2[C@@H]1O[C@H](COP(=O)(O)OP(=O)(O)OP(=O)(O)O)[C@@H](O)[C@H]1O` [ATP], the ATPase activity result in assay [4] is recorded as “high ATPase activity is observed when DppA was supplied in the assay”. For the compound `Nc1ncnc2c1ncn2[C@@H]1O[C@H](COP(=O)(O)OP(=O)(O)OP(O)(O)=S)[C@@H](O)[C@H]1O` [ATPγS], the “cryo-EM structure of the complex (2.73 Å)” value in assay [5] was “two ATPγS molecules bound at the interface of the two NBDs”.

Source of the values: paper PMC12136057, “Structural characterization of the ABC transporter DppABCDF in Escherichia coli reveals insights into dipeptide acquisition” (PLOS Biology, 2025).
